This note sets out measurements from paper PMC7018972, “Novel and selective inactivators of Triosephosphate isomerase with anti-trematode activity” (Scientific Reports, 2020).

Where two headings read alike, the source gives them in different places. Bounds are passed on as bounds.

For assay [1], the target named is Fasciola hepatica TIM (FhTIM) (Fasciola hepatica, UniProt S4UI50). In words: Inhibition of recombinant FhTIM, coupled enzyme assay. It counts as biochemical. The gist of the method: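 E. coli-expressed FhTIM preincubated with compound 1 h at 37 °C in 100 mM triethanolamine, 10 mM EDTA, pH 7.4, 10% DMSO. Aliquot diluted into coupled assay (1 mM glyceraldehyde-3-phosphate, 0.2 mM NADH, α-glycerol phosphate dehydrogenase, pH 7.4) with NADH decrease at 340 nm, 38 °C. Triplicate, two independent experiments.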

The test system of assay [2] is S. mansoni somules. In words: S. mansoni somules phenotypic screen in vitro. It counts as cell-based, Schistosoma mansoni. The following applies: for SOMULES SEVERITY SCORE: Table 2S, 10 uM; for S. mansoni somules severity score: score 0 to maximum 4. The source says:
(§1) The NMRI isolate of S. mansoni was maintained by passage through Biomphalaria glabrata snails and 3–5 week-old, female Golden Syrian hamsters (Charles River, San Diego, CA) as intermediate and definite hosts, respectively. A dose of 600 infective larvae (cercariae) was used to infect hamsters. The acquisition, preparation and in vitro maintenance of S. mansoni post-infective larvae (schistosomula or somules) and adults have been already described[5],[50],[51]. Vertebrate animal maintenance and handling at the University of California San Diego Animal Care Facility were in accordance with protocols approved by the university’s Institutional Animal Care and Use Committee (IACUC).
Phenotypic screens with somules were performed as described[5],[50],[51]. Initially, 100 μL Basch medium, 100 U/ml penicillin, […] streptomycin, 4% heat-inactivated FBS (Corning Mediatech) and 1 μl compound in DMSO were added to clear, 96-well round-bottomed plates (Costar cat.# 3367). Then, 100 μL of the same medium containing 40–50 somules was added to mix the compound with somules (final concentration of DMSO was 0.5%). Assay plates were placed into plastic boxes humidified with wet tissue and then incubated at 37 °C in a 5% CO2 environment. Somules phenotypes were recorded every 24 h up to 72 h using an inverted microscope (Zeiss Axiovert 40 C).
(§2) Schistosome phenotypic responses were recorded employing a series of ‘descriptors,’ such as rounding, degeneration, overactivity, loss of translucency and changes in motility, as described previously[5],[50],[51],[53]. To allow for comparisons of compound activity, each descriptor was awarded a value of 1 and these were added up to a maximum ‘severity score’ of 4. Evidence of degeneracy or death was awarded the maximum score of 4. Scores were averaged across duplicate wells for each compound (see details in the supporting information).

Assay [3] relates to S. mansoni adults. The assay is described as follows: S. mansoni adults phenotypic screen ex vivo. It counts as cell-based, Schistosoma mansoni. The following applies: Table 2S, 5 uM.
Excerpt: as §1
Phenotypic screens with 42-day-old, adult parasites were performed in 24-well plates (Costar cat.# 3526) containing the above medium and approximately five adult males and two females per well. Compound was added in a volume of up to 1 μL DMSO at a concentration of 5 µM (0.05% DMSO final). Assay plates were incubated at 37 °C in a 5% CO2 environment. Parasite phenotypes were recorded at 4, 8 and 24 h using a Zeiss Axiovert 40 C.
as §2

Assay [4] deals with T1, human (HsTIM) (Homo sapiens, UniProt P60174).
T1 construct: made in house; host or cells: Escherichia coli
In words: Selectivity assay, inhibition of HsTIM. It counts as biochemical. The following applies: read-out: inhibition against HsTIM. How it is done: (§3) Expression and purification of proteins: FhTIM, RabbitTIM and HsTIM were expressed in Escherichia coli and purified as described in the literature[31],[37]. After purification, the enzyme, dissolved in 100 mM triethanolamine, 10 mM EDTA and 1 mM dithiothreitol (pH 8), was precipitated with ammonium sulfate (75% saturation) and stored at 4 °C. Before use, extensive dialysis against 100 mM triethanolamine/10 mM EDTA (pH 7.4) was performed. Protein concentration was determined by absorbance at 280 nm for FhTIM (ε = 33,460 M^−1cm^−1) and for RabbitTIM and HsTIM (ε = 33,460 M^−1cm^−1). Enzymatic activity was determined following the conversion of glyceraldehydes-3-phosphate into dihydroxyacetone phosphate in a coupled enzyme assay. The decrease in absorbance at 340 nm was followed in a multiplate reader VarioskanTM Flash Multimode Reader (Thermo ScientificTM, Waltham, MA, USA) at 38 °C. The reaction mixture (1 mL, pH 7.4) contained 100 mM triethanolamine, 10 mM EDTA, 0.2 mM NADH, 1 mM glyceraldehydes-3-phosphate and 0.9 units of α-glycerol phosphate dehydrogenase. The reaction was initiated by the addition of 5 ng/mL of the TIM of interest. For the inhibition studies, TIM was incubated at a concentration of 5 mg/mL in a buffer containing 100 mM triethanolamine, 10 mM EDTA, pH 7.4 and 10% of DMSO at 37 °C for 1 h. The mixture also contained the compounds, dissolved in DMSO, at the indicated concentrations. After 1 h, 10 µL were withdrawn and added to a final volume of 100 µL of the reaction mixture for the activity assay. The inhibition assay was performed in a 96-well microplate. None of the molecules tested here affected the activity of α-glycerol phosphate dehydrogenase, the enzyme used in the coupled assay. The IC50 value was taken as the concentration of drug needed to reduce the enzymatic activity to 50% by analysis using OriginLab8.5® sigmoidal regression (% of enzymatic activity vs. the logarithm of the compound concentration). The experiments were performed in triplicate in two independent experiments.

Assay [5] deals with T2, rabbit TIM (Oryctolagus cuniculus, UniProt P00939).
T2 construct: made in house; host or cells: Escherichia coli
In words: Selectivity assay, inhibition of rabbit TIM. It counts as biochemical. The following applies: read-out: inhibition against rabbit TIM. How it is done: as §3

For assay [6], the system named is newly excysted juvenile (NEJ) F. hepatica. In words: In vitro NEJ treatment. The following applies: Fasciola hepatica, NEJ. It counts as cell-based, Fasciola hepatica. The method, then: F. hepatica metacercariae were acquired from DILAVE, MGAP, Uruguay. NEJ were obtained by in vitro excystement as previously described with minor modifications. Briefly, metacercariae were incubated with 1% sodium hypochlorite for 5 min at room temperature to remove the outer cyst wall and then washed exhaustively with PBS 200 U/mL Penicillin G sulfate, […] streptomycin sulfate, 500 ng/mL amphotericin B, 10 mM HEPES, counted and divided into groups of around 20 parasites that were transferred to 12 wells tissue culture plates. Parasites were maintained at 37 °C, 5% CO2 in modified Basch’s medium. At day 1, compounds were added at the indicated concentrations and 0.5% DMSO was added to control groups; each condition was tested in duplicate. NEJ behavior was monitored under a light microscope (Olympus BX41), every day each well was recorded for a minute in order to assess parasite motility and registered using the following score: 3- normally active; 2- reduced activity (sporadic movement); 1- immotile (dead)[48].

Assay [7] concerns the target FhTIM (Fasciola hepatica, UniProt S4UI50). In words: Microscale thermophoresis (MST) binding to FhTIM. The following applies: 24 °C. The method, then:
MST experiments were performed according to the NanoTemper technologies protocol in a Monolith NT.115 (red/blue) instrument (NanoTemper Technologies, München, Germany[36]). With this technique, the diffusion behavior of a labeled protein is measured when an infrared light excites the movement of the protein in capillaries. This behavior is the combination of two effects: the fast, local environment-dependent responses of the fluorophore to the temperature jump and the slower diffusive thermophoresis fluorescence changes. It will be modified when the protein is complexed with increasing amounts of unlabeled partners, leading to titration curves that can be fit for Kd estimation. In practice, FhTIM was labeled with the Monolith His-Tag Labeling Kit RED-tris-NTA (NanoTemper Technologies, München, Germany), as described by the manufacturer. The experiments were performed using 20% and 40% MST power and between 20–80% LED power at 24 °C. The MST traces were recorded using the standard parameters: 5 s MST power off, 30 s MST power on, and 5 s MST power off. The compounds were used at high concentrations (around 5 mM) in the bindings check assay with DMSO at 5% v/v. If the binding check was positive, then the affinity determination was performed with the same experimental settings, with serial 2x dilutions of the compound of interest.
A general note: MST reads how a fluorescent partner responds to local heating, with and without ligand.

Where [8] appears, read: Table 1S, screening of 340 compounds in FhTIM, table head prints no unit, µM per b8/b9, read-out: IC50.
[9] abbreviates: Figure 1, ranges of inhibitory activity, read-out: IC50 range.
[10] abbreviates: recombinant FhTIM, 1 h incubation with compound at 37 °C, read-out: IC50.

T2 sequence (P00939 whole entry): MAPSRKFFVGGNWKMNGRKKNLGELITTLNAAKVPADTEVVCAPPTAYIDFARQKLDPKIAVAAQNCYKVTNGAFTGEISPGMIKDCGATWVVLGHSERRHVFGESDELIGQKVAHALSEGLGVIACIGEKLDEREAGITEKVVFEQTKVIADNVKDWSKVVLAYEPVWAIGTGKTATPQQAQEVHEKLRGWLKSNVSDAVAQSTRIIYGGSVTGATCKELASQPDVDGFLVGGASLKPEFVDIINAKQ
Chain of FhTIM (S4UI50 entry or part of it): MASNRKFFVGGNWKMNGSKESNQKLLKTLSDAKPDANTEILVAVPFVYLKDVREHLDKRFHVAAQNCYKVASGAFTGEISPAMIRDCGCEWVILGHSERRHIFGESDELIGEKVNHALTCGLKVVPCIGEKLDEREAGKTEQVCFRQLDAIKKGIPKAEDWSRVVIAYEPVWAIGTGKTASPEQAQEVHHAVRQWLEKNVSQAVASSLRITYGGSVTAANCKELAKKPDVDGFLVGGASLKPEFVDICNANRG
Chain of Fasciola hepatica TIM (FhTIM) (S4UI50 entry or part of it): as above
T1 sequence (P60174 whole entry): as the sequence (P00939 whole entry) above, with K20Q, N21S, T27G, S119A counted along it

One may read the IC50 as the concentration that inhibits the measured activity by half. With `C=CCN1C(=O)CSC1=NN=Cc1ccc2c(c1)[n+]([O-])c(-c1ccccc1)c(C(=O)Nc1ccccc1)[n+]2[O-]` [Compound 303], the IC50 in assay [1] (setting [8]) is greater than 100 µM. The “SOMULES SEVERITY SCORE” value worked out at 0 in assay [2] (24 h), 4 in assay [2] (48 h) and 4 in assay [2] (3d). Moreover, the “ADULTS SEVERITY SCORE” value in assay [3] (4 h), in assay [3] (8 h) and in assay [3] (24 h) was 0 each time.

The inhibition is the share of the control response that was lost under treatment. Turning to `O=C1C(=Cc2ccc([N+](=O)[O-])cc2)C(=O)N(CCc2ccccc2)S(=O)(=O)N1CCc1ccccc1` [Compound 110], the IC50 was less than 50 µM in assay [1] (setting [9]), 7 ± 1 µM in assay [1] (setting [10]) and 5 ± 2 µM in assay [6] (incubation time 30 h). Further, the inhibition at 100 µM in assay [4] and in assay [5] was less than 20% each time. Also, in assay [2] (Table 2, time not given), the “S. mansoni somules severity score” value is 0. Further, the “SOMULES SEVERITY SCORE” value in assay [2] (24 h), in assay [2] (48 h) and in assay [2] (3d) was 0 in each case.

For `O=C1C(=Cc2ccc([N+](=O)[O-])o2)C(=O)N(Cc2ccccc2)S(=O)(=O)N1Cc1ccccc1` [Compound 116], the IC50 in assay [1] (setting [9]) was less than 50 µM; in assay [1] (setting [8]), less than 25 µM; in assay [1] (setting [10]) it was 5 ± 1 µM; in assay [6] (incubation time 72 h), greater than 50 µM.

As to `CCCCN1C(=O)C(=Cc2ccc([N+](=O)[O-])s2)C(=O)N(CCCC)S1(=O)=O` [Compound 1148], the IC50 in assay [1] (setting [9]) is less than 50 µM; in assay [1] (setting [10]), 15 ± 5 µM; in assay [6] (incubation time 4 h), 12 ± 2 µM. The “SOMULES SEVERITY SCORE” value in assay [2] (24 h) is given as 0; in assay [2] (48 h), 1; in assay [2] (3d) it was 0.

The term Kd denotes the free concentration of one partner at which half of the binding sites on the other are occupied at equilibrium, for simple one-to-one binding. For the molecule `CCCCCCN1C(=O)C(=Cc2ccc([N+](=O)[O-])cc2)C(=O)N(CCCCCC)S1(=O)=O` [Compound 128], the IC50 in assay [1] (setting [9]) is less than 50 µM; in assay [1] (setting [8]), less than 25 µM; in assay [1] (setting [10]), 5 ± 1 µM; in assay [6] (incubation time 12 h), 10 ± 1 µM. Besides, the Kd in assay [7] was 120 ± 10 µM. Also, the inhibition at 100 µM in assay [4] and in assay [5] was less than 20% in each case.

In turn, `CS(=O)(=O)c1nc2cc(Oc3cccc(Cl)c3Cl)c(Cl)cc2[nH]1` [Compound 1293, 6-chloro-5-(2,3-dichlorophenoxy)-2-(methylsulfonyl)-1H-benzo[d]imidazole, reference compound] came in with an IC50 in assay [6] (incubation time 48 h) of 50 µM.

Consider `O=C1C(=Cc2ccc([N+](=O)[O-])s2)C(=O)N(Cc2ccccc2)S(=O)(=O)N1Cc1ccccc1` [Compound 114], for which the IC50 in assay [1] (setting [9]) was less than 50 µM; in assay [1] (setting [10]), 25 ± 8 µM; in assay [6] (incubation time 4 h) it was 6.5 ± 0.6 µM. Also, the Kd in assay [7] came to 664 ± 25 µM. In assay [2] (Table 2, 72 h), the “S. mansoni somules severity score” value is 4 (72 h). Also, the “SOMULES SEVERITY SCORE” value in assay [2] (24 h) is listed as 0; in assay [2] (48 h), 3; in assay [2] (3d), 4.

Turning to `COc1cc(/C=C/C(=O)CC(=O)/C=C/c2ccc(O)c(OC)c2)ccc1O` [Compound 906], the IC50 in assay [1] (IC50 (µM), recombinant FhTIM, 1 h incubation with compound at 37 °C) was 35 ± 4 µM; in assay [1] (IC50 range, Figure 1, ranges of inhibitory activity), less than 50 µM; in assay [6] (incubation time 4 h), 7 ± 1 µM.

Regarding `O=C1C(=Cc2ccc([N+](=O)[O-])s2)C(=O)N(CCc2ccccc2)S(=O)(=O)N1CCc1ccccc1` [Compound 115], the IC50 in assay [1] (setting [9]) was less than 50 µM; in assay [1] (setting [10]), 8 ± 2 µM; in assay [6] (incubation time 72 h), 7 ± 2 µM. For the same molecule, the Kd in assay [7] came to 120 ± 12 µM. Further, the inhibition at 100 µM in assay [4] and in assay [5] was less than 20% each time. For the same molecule, in assay [2] (Table 2, 72 h), the “S. mansoni somules severity score” value is 4 (72 h). In addition, the “SOMULES SEVERITY SCORE” value is 2 in assay [2] (24 h), 3 in assay [2] (48 h) and 4 in assay [2] (3d).

Consider `O=C(C=Cc1ccc2ccccc2c1)c1c(O)ccc2ccccc12` [Compound 1254], for which the half-maximal inhibitory concentration (IC50) in assay [1] (setting [10]) was 50 ± 5 µM. In addition, the “SOMULES SEVERITY SCORE” value was determined as 0 in assay [2] (24 h), 2 in assay [2] (48 h) and 0 in assay [2] (3d).

As for `C=CCNC(=S)NN=Cc1ccc2c(c1)[n+]([O-])c(C(=O)Nc1ccccc1)c(C)[n+]2[O-]` [Compound 490], in assay [1] (setting [8]), the concentration for half-maximal inhibition (IC50) is greater than 100 µM. Further, the “SOMULES SEVERITY SCORE” value in assay [2] (24 h), in assay [2] (48 h) and in assay [2] (3d) was 0 throughout.
